Results on 2 molecules are retold here after publication PMC11492252 (Heliyon, 2024).

In assay [1] the test system is Escherichia coli (E. coli). Kind of assay: Antimicrobial MIC, broth microdilution. Type of assay: cell-based. For orientation: In broth dilution the organism is exposed to a series of concentrations in liquid medium.
Assay [2] relates to Candida albicans (C. albicans). The assay can be described thus: Antifungal MIC, broth microdilution. The assay is classed as cell-based.

The structures appear in SMILES notation.

In general, MIC refers to the lowest concentration found to suppress growth. `CC(=O)OCC1=C(C(=O)O)N2C(=O)[C@@H](NC(=O)Cc3cccs3)[C@H]2SC1` [Cephalothin]: the minimum inhibitory concentration (MIC) in assay [1] is less than 32 µg/mL.

In assay [2], `C[C@@H]1C[C@@H]([C@H](O)CC2CC(=O)NC(=O)C2)C(=O)[C@@H](C)C1` [Cycloheximide] showed an MIC of less than 201 µg/mL.
